In patent US20250163051A1, “PYRIMIDO AROMATIC RING COMPOUND AND USE THEREOF IN DRUG” (SUNSHINE LAKE PHARMA CO., LTD., priority 2022, published 2025):
Where two headings read alike, the source gives them in different places.

Tests used:
[1] = target: T1, CYP3A4 (Homo sapiens, UniProt P08684); experiment: Inhibition of human liver microsomal CYP3A4; assay type: in vitro ADME; conditions: human liver microsomes, 10 μM test substance
T1 construct: from tissue; host or cells: human liver microsomes
Procedure: (§1) Experimental purpose: The inhibitory effects of the test compounds on the major metabolizing enzymes CYP1A2, CYP2C19, CYP2D6 and CYP3A4 in microsomes were evaluated using the human liver microsomal system. Experimental method: The test substance was incubated with a suspension of human liver microsomes containing cytochrome P450 enzymes CYP1A2, CYP2C19, CYP2D6 and CYP3A4 at a concentration of 10 μM in the final incubation system. The known substrates were metabolized by the corresponding single enzymes to generate specific metabolites, and the metabolites were determined by UPLC-MS/MS method. The relative inhibition rate (%) was calculated by the percentage reduction of metabolite production by the test compound and solvent DMSO in the same time period. N is the concentration value of the probe substrate metabolite and it is assumed that the […] with or without inhibitor at 0 min is 0. N+inh is the metabolite concentration in the group with inhibitor, and Nveh is the metabolite concentration in the group without inhibitor. The results of the inhibition test of the compounds of the present invention on human liver microsomal CYP enzymes are shown in Table C.

[2] = Cell toxicity (Celltiter-Glo) in HEK-Blue hTLR8 cells; conditions: human
Procedure: (§2) Purpose: HEK-Blue™ hTLR7 and HEK-Blue™ hTLR8 cells were used to detect the agonist and cytotoxic activities of compounds against hTLR7 and hTLR8.
(§3) The experimental steps were as shown below: • 1) Preparation of compound: The compound was prepared into a 20 mM stock solution with DMSO, and then the stock solution was diluted 3-fold in a gradient and added to a 96-well plate, for a total of 10 concentrations, with duplicate wells for each concentration. For negative control wells, 0.5 μL DMSO was added to each well. The final DMSO concentration was 0.5%. • 2) HEK-Blue™ hTLR7 or HEK-Blue™ hTLR8 cells were suspended in culture medium and then seeded into 96-well plates containing compounds at a cell count of 50,000 per well. The compounds and cells were incubated for 24 h at 37° C., 5% Co2. • 3) QUANTI-Blue was used for the detection solution: to a mixture of 1 mL of QB reagent and 1 mL of QB buffer was added 98 mL of sterile water, the mixture was mixed and dissolved, and then placed at room temperature for 10 min. • 4) Activity test of the compound: 20 μL of the culture supernatant in step 2) was added to each well of a 96-well plate containing 180 μL of QUANTI-Blue detection solution. After incubation at 37° C. for 1 h, the absorbance at 650 nm (OD650) was detected using a multifunctional microplate reader Flextation III. • 5) Detection of cell activity: The chemiluminescent signal (RLU) was detected using the multifunctional microplate reader Flextation III according to the instructions of Celltiter-Glo. • 6) Data analysis
Detection of cell activity: The calculation formula for cell activity % is as follows.
The cell activity % values were analyzed using GraphPad Prism software, and the compound dose-effect curves were fitted to calculate the CC50 values of the compounds.
Cell activity %=RLU compound/RLU DMSO Control*100%

[3] = target: T2, hTLR8 (Homo sapiens, UniProt Q9NR97); experiment: Agonistic activity on human TLR8 in HEK-Blue hTLR8 cells (QUANTI-Blue); assay type: cell-based; conditions: 24 h incubation, OD650, read-out: hTLR 8 EC50
T2 construct: expressed in transfected cells; host or cells: HEK-Blue hTLR8 cells
T2 sequence (Q9NR97 27-1041): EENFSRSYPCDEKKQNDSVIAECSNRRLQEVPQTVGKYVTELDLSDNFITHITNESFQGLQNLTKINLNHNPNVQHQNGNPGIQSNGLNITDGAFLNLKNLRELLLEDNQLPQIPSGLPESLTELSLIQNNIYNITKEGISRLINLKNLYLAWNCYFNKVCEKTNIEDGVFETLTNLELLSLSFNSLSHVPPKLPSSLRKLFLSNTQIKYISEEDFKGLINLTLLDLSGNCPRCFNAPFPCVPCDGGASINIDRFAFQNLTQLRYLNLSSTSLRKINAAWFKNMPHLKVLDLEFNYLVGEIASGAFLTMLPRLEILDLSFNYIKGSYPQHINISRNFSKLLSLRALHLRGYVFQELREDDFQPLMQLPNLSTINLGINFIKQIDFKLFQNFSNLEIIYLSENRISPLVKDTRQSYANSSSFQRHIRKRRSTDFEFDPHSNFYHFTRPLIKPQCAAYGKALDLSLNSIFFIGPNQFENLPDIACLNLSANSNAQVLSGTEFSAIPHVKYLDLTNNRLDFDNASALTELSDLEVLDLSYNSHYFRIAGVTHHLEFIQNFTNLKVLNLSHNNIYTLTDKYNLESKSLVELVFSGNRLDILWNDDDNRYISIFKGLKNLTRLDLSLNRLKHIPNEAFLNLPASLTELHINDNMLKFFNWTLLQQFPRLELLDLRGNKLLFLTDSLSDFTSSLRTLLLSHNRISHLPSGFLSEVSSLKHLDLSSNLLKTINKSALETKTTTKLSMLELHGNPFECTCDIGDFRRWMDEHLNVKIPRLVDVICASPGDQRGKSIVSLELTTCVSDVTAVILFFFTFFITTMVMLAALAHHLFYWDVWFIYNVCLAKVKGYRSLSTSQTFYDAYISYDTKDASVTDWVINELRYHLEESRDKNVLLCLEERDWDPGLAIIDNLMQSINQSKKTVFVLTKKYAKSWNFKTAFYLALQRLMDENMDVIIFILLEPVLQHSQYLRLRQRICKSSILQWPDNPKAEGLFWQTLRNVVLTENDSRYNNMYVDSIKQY
Procedure: as §2, §3
(§4) Activity of compounds: OD650 values were analyzed using GraphPad Prism software, and the compound dose-effect curves were fitted to calculate the EC50 values of the compounds.

[4] = target: T3, CYP2D6 (Homo sapiens, UniProt P10635); experiment: Inhibition of human liver microsomal CYP2D6; assay type: in vitro ADME; conditions: human liver microsomes, 10 μM test substance; read-out: Relative inhibition rate (%) CYP2D6
T3 construct: from tissue; host or cells: human liver microsomes
T3 sequence (P10635 whole entry): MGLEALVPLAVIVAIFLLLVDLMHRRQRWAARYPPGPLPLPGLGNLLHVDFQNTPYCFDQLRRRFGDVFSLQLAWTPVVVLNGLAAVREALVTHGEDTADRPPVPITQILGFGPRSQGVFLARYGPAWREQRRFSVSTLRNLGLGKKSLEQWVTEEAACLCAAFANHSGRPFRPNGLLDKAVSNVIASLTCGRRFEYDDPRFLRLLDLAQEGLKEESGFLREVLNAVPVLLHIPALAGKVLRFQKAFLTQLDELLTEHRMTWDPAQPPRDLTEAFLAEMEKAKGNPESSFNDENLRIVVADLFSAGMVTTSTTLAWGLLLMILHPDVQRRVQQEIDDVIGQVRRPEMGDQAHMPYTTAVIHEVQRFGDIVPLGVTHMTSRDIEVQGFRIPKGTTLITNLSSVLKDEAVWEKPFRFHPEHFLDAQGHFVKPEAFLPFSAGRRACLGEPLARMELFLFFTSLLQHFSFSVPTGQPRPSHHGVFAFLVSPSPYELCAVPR
Procedure: as §1

[5] = target: T4, CYP2C19 (Homo sapiens, UniProt P33261); experiment: Inhibition of human liver microsomal CYP2C19; assay type: in vitro ADME; conditions: human liver microsomes, 10 μM test substance; read-out: Relative inhibition rate (%) CYP2C19
T4 construct: from tissue; host or cells: human liver microsomes
T4 sequence (P33261 whole entry): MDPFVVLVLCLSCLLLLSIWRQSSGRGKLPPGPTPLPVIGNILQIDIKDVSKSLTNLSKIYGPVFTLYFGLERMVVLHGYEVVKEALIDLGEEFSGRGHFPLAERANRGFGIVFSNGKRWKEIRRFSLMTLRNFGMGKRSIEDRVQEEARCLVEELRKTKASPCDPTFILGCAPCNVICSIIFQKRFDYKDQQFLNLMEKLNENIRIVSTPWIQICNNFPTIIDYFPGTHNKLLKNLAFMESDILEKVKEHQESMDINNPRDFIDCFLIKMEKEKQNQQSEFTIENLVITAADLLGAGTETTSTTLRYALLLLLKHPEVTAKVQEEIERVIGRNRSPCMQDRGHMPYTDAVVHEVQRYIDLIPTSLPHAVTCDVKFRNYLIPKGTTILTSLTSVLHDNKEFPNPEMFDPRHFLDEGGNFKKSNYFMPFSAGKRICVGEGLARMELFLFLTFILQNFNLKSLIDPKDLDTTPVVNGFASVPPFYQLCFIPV
Procedure: as §1

[6] = target: T5, CYP1A2 (Homo sapiens, UniProt P05177); experiment: Inhibition of human liver microsomal CYP1A2; assay type: in vitro ADME; conditions: human liver microsomes, 10 μM test substance; read-out: Relative inhibition rate (%) CYP1A2
T5 construct: from tissue; host or cells: human liver microsomes
T5 sequence (P05177 1-516): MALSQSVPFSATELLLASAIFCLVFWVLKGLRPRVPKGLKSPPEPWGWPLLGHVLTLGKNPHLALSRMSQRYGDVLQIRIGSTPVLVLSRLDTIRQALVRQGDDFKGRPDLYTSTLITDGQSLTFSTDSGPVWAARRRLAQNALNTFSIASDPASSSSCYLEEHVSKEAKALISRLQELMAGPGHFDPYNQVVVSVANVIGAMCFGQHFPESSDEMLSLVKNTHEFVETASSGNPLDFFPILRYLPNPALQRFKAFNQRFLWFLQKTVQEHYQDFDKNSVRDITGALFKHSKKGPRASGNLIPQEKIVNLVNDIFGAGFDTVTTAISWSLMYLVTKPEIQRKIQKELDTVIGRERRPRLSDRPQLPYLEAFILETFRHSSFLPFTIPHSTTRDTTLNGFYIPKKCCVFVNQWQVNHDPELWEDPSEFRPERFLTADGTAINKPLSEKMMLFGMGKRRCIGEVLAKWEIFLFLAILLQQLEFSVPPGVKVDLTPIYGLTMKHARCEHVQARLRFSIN
Procedure: as §1

[7] = target: T6, hTLR7 (Homo sapiens, UniProt Q9NYK1); experiment: Agonistic activity on human TLR7 in HEK-Blue hTLR7 cells (QUANTI-Blue); assay type: cell-based; conditions: 24 h incubation, OD650, read-out: hTLR 7 EC50
T6 construct: expressed in transfected cells; host or cells: HEK-Blue hTLR7 cells
T6 sequence (Q9NYK1 27-1049): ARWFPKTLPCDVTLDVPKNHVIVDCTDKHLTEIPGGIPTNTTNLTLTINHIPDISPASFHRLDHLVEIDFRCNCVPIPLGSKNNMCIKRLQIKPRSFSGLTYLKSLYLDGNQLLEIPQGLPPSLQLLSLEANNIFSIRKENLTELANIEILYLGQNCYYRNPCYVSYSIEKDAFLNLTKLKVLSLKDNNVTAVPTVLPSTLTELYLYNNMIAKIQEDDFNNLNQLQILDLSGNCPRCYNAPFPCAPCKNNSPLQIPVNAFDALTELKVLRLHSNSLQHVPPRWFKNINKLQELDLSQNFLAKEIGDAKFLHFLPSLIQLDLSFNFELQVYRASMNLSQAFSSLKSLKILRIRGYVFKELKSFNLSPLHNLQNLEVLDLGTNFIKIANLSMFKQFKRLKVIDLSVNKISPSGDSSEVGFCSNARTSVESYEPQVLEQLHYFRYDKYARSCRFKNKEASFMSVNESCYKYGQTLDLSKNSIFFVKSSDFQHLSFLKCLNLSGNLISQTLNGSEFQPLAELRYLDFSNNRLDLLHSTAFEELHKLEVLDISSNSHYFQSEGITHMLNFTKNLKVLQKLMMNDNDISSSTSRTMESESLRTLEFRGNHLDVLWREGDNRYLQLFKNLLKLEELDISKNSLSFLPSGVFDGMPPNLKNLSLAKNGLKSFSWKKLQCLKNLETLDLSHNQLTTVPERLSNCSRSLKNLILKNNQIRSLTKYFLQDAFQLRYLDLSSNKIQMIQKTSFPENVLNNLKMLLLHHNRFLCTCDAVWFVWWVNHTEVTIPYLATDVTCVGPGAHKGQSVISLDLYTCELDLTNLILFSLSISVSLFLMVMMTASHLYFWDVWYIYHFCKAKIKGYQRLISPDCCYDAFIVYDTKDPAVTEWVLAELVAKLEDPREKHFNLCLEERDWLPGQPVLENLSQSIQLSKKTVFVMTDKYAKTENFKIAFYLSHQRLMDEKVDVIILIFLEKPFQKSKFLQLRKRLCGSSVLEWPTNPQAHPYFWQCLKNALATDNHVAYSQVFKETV
Procedure: as §2, §3, §4

[8] = probe Midazolam, substrate Midazolam, read-out: Relative inhibition rate (%) CYP3A4 (Midazolam)
[9] = probe Testosterone, substrate Testosterone, read-out: Relative inhibition rate (%) CYP3A4 (Testosterone)

T1 sequence (P08684 whole entry): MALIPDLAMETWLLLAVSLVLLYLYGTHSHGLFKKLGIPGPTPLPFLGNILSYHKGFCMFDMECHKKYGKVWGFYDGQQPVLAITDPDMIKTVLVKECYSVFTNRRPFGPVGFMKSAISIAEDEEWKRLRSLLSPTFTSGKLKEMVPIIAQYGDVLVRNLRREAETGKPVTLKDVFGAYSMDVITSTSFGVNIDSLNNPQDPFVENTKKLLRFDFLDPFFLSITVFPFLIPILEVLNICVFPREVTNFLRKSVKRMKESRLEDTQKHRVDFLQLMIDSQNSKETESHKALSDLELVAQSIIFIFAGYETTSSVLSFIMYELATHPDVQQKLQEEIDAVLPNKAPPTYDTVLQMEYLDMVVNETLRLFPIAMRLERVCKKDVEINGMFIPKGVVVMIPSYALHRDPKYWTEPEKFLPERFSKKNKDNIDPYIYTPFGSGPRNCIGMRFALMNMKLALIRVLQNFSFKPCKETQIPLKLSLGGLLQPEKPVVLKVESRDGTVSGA

Row | Structure (SMILES) | inhibition at 10 µM [1, 8] [%] | inhibition at 10 µM [1, 9] [%] | CC50 at 24 h [2] [µM] | EC50 [3] [µM] | inhibition at 10 µM [4] [%] | inhibition at 10 µM [5] [%] | inhibition at 10 µM [6] [%] | EC50 [7] [µM]
1 | CCCC[C@](C)(CO)Nc1nc(N)nc2cc(-c3cc(=O)n(C)cc3CN(C)CCO)ccc12 [Example 64, (R)-4-(2-Amino-4-((1-hydroxy-2-methylhexan-2-yl)amino)quinazolin-7-yl)-5-(((2-hydroxyethyl)(methyl)amino)methyl)-1-methylpyridin-2(1H)-one] | 17.6 | 8.8 | > 100 | 0.077 | 13.8 | 2.4 | 8.9 | > 100
2 | CCCC[C@](C)(CO)Nc1nc(N)nc2cc(-c3cc(=O)[nH]cc3CN(C)CCOC)ccc12 [Example 54, (R)-4-(2-Amino-4-((1-hydroxy-2-methylhexan-2-yl)amino)quinazolin-7-yl)-5-(((2-methoxyethyl)(methyl)amino)methyl)pyridin-2(1H)-one] | 22.5 | 8.9 | > 100 | 0.106 | 12.5 | 0.8 | 7.9 | > 100
3 | CCCC[C@](C)(CO)Nc1nc(N)nc2cc(-c3cc(=O)n(C)cc3CN(C)CCOC)ccc12 [Example 55, (R)-4-(2-Amino-4-((1-hydroxy-2-methylhexan-2-yl)amino)quinazolin-7-yl)-5-(((2-methoxyethyl)(methyl)amino)methyl)-1-methylpyridin-2(1H)-one] | 38.6 | 17.1 | > 100 | 0.039 | 19.1 | 17 | 9.1 | > 100
4 | CCCCN(C)Cc1cn(C)c(=O)cc1-c1ccc2c(N[C@@](C)(CO)CCCC)nc(N)nc2c1 [Example 56, (R)-4-(2-Amino-4-((1-hydroxy-2-methylhexan-2-yl)amino)quinazolin-7-yl)-5-((butyl(methyl)amino)methyl)-1-methylpyridin-2(1H)-one] | 33.6 | 15.6 | – | 0.025 | 31.7 | 10.4 | 10.7 | 11.1
5 | CCCC[C@](C)(CO)Nc1nc(N)nc2cc(-c3cc(=O)[nH]cc3CN(C)C)cnc12 [Example 50, (R)-4-(2-Amino-4-((1-hydroxy-2-methylhexan-2-yl)amino)pyrido[3,2-d]pyrimidin-7-yl)-5-((dimethylamino)methyl)pyridin-2(1H)-one] | 13.7 | 11.6 | > 100 | 0.016 | 9.7 | 11.4 | 10.7 | > 100
6 | CCCCN(C)Cc1c[nH]c(=O)cc1-c1ccc2c(N[C@@](C)(CO)CCCC)nc(N)nc2c1 [Example 36, (R)-4-(2-Amino-4-((1-hydroxy-2-methylhexan-2-yl)amino)quinazolin-7-yl)-5-((butyl(methyl)amino)methyl)pyridin-2(1H)-one] | 25.9 | 7.5 | > 100 | 0.066 | 20.1 | 7 | 9 | > 100
7 | CCCC[C@](C)(CO)Nc1nc(N)nc2cc(-c3cc(=O)[nH]cc3COC)cnc12 [Example 51, (R)-4-(2-Amino-4-((1-hydroxy-2-methylhexan-2-yl)amino)pyrido[3,2-d]pyrimidin-7-yl)-5-(methoxymethyl)pyridin-2(1H)-one] | 7.4 | 34.1 | > 100 | 0.012 | 9.6 | 22.1 | 11.1 | > 100
